Inhibition in vivo data for 17 compounds are collected here from US12091395B2, “Griseofulvin compound” (Daiichi Sankyo Company, Limited, priority 2016, dated 2024).

This test deals with TNF-α. The test is described as follows: Determination of TNF-α inhibition rate (LPS-induced inflammation in mice, serum TNF-α). The test is classed as in vivo. Particulars: Mus musculus, 1 h, oral 100 mg/kg in 0.5% methyl cellulose, LPS 0.4 mg/kg i.p. one hour later, serum TNF-α one hour after LPS. The procedure:
A test substance was suspended in a 0.5%. (w/v) methyl cellulose and orally administered to mice at a dose of 100 mg/kg. One hour later, a lipopolysaccharide (LPS, Sigma-Aldrich, L2630 (trade name)) (0.4 mg/kg) was intraperitoneally administered to induce inflammation. One hour after administration of LPS, blood was taken from the vena cava under anesthesia with isoflurane, placed in a tube containing a serum separating agent, allowed to stand still at room temperature for 20-30 minutes and centrifuged at 4° C. at 12,000 rpm for 5 minutes to obtain the serum. Thereafter, the amount of the TNF-α in the serum was measured by using Mouse TNF-α Elisa Kit (Invitrogen, KMC3011C (trade name)) or Mouse TNF-α Immunoassay Kit (PerkinElmer, AL505 (trade name)) in accordance with the protocol of the kit. The serum was diluted 10 times with the dilution solution contained in the kit and put in use.
TNF-α inhibition rate (%) of the test substance was calculated in accordance with the following expression. TNF-α inhibition rate (%)=[(TNF-α amount of control group)−(TNF-α amount of test substance administration group)]×100/(TNF-α amount of control group)

SMILES strings stand for the structures.

Compound `COC1=CC(=O)C[C@@H](C)[C@]12Oc1c(Cl)c(-c3nnc(C)o3)cc(OCCO)c1C2=O` [Example 14, (2S,5′R)-7-Chloro-4-(2-hydroxyethoxy)-3′-methoxy-5′-methyl-6-(5-methyl-1,3,4-oxadiazol-2-yl)spiro[benzofuran-2,4′-cyclohex-2-ene]-1′,3-dione] yielded an inhibition in vivo at 100 mg/kg of 24%.
In the case of `COC1=CC(=O)C[C@@H](C)[C@]12Oc1c(Cl)c(-c3nc(C)no3)cc(OC)c1C2=O` [Example 6, (2S,5′R)-7-Chloro-3′,4-dimethoxy-5′-methyl-6-(3-methyl-1,2,4-oxadiazol-5-yl)spiro[benzofuran-2,4′-cyclohex-2-ene]-1′,3-dione] it was 55%; in that of `CCn1ccc(-c2cc(OC)c3c(c2Cl)O[C@]2(C3=O)C(OC)=CC(=O)C[C@H]2C)n1` [Example 4, (2S,5′R)-7-Chloro-6-(1-ethylpyrazol-3-yl)-3′,4-dimethoxy-5′-methyl-spiro[benzofuran-2,4′-cyclohex-2-ene]-1′,3-dione], 73%.
The value for `CCOc1cc(-c2nnc(C(C)(C)O)o2)c(Cl)c2c1C(=O)[C@@]1(O2)C(OC)=CC(=O)C[C@H]1C` [Example 11, (2S,5′R)-7-Chloro-4-ethoxy-6-[5-(1-hydroxy-1-methyl-ethyl)-1,3,4-oxadiazol-2-yl]-3′-methoxy-5′-methyl-spiro[benzofuran-2,4′-cyclohex-2-ene]-1′,3-dione] was 61%.
In the case of `COCCOc1cc(OC)c2c(c1Cl)O[C@]1(C2=O)C(OC)=CC(=O)C[C@H]1C` [Example 2, (2S,5′R)-7-Chloro-3′,4-dimethoxy-6-(2-methoxyethoxy)-5′-methyl-spiro[benzofuran-2,4′-cyclohex-2-ene]-1′,3-dione] it was 71%; in that of `COC1=CC(=O)C[C@@H](C)[C@]12Oc1c(Cl)c(OCCO)cc(OC)c1C2=O` [Example 1, (2S,5′R)-7-Chloro-6-(2-hydroxyethoxy)-3′,4-dimethoxy-5′-methyl-spiro[benzofuran-2,4′-cyclohex-2-ene]-1′,3-dione], 62%; in that of `COC1=CC(=O)C[C@@H](C)[C@]12Oc1c(Cl)c(OC)cc(OC)c1C2=O` [Griseofulvin], 19%.
For `COC1=CC(=O)C[C@@H](C)[C@]12Oc1c(Cl)c(-c3nc(C(C)O)no3)cc(OC)c1C2=O` (stereo partly drawn) [Example 13, (2S,5′R)-7-Chloro-6-[3-(l-hydroxyethyl)-1,2,4-oxadiazol-5-yl]-3′,4-dimethoxy-5′-methyl-spiro[benzofuran-2,4′-cyclohex-2-ene]-1′,3-dione], testing at 100 mg/kg gave an inhibition in vivo of 82%.
In the case of `COC1=CC(=O)C[C@@H](C)[C@]12Oc1c(Cl)c(-c3ccn(C)n3)cc(OC)c1C2=O` [Example 3, (2S,5′R)-7-Chloro-3′,4-dimethoxy-5′-methyl-6-(1-methylpyrazol-3-yl)spiro[benzofuran-2,4′-cyclohex-2-ene]-1′,3-dione] it was 65%.
In the case of `COC1=CC(=O)C[C@@H](C)[C@]12Oc1c(Cl)c(-c3nc(C)no3)cc(OCCO)c1C2=O` [Example 15, (2S,5′R)-7-Chloro-4-(2-hydroxyethoxy)-3′-methoxy-5′-methyl-6-(3-methyl-1,2,4-oxadiazol-5-yl)spiro[benzofuran-2,4′-cyclohex-2-ene]-1′,3-dione] it was 55%.
In the case of `COC1=CC(=O)C[C@@H](C)[C@]12Oc1c(Cl)c(-c3nnc(C)o3)cc(OC)c1C2=O` [Example 5, (2S,5′R)-7-Chloro-3′,4-dimethoxy-5′-methyl-6-(5-methyl-1,3,4-oxadiazol-2-yl)spiro[benzofuran-2,4′-cyclohex-2-ene]-1′,3-dione] it was 70%; in that of `COC1=CC(=O)C[C@@H](C)[C@]12Oc1c(Cl)c(-c3nnc([C@H](C)O)o3)cc(OC)c1C2=O` [Example 9, (2S,5′R)-7-Chloro-6-[5-[(1S)-1-hydroxyethyl]-1,3,4-oxadiazol-2-yl]-3′,4-dimethoxy-5′-methyl-spiro[benzofuran-2,4′-cyclohex-2-ene]-1′,3-dione], 65%.
For the compound `COC1=CC(=O)C[C@@H](C)[C@]12Oc1c(Cl)c(-c3noc(C)n3)cc(OCCO)c1C2=O` [Example 16, (2S,5′R)-7-Chloro-4-(2-hydroxyethoxy)-3′-methoxy-5′-methyl-6-(5-methyl-1,2,4-oxadiazol-3-yl)spiro[benzofuran-2,4′-cyclohex-2-ene]-1′,3-dione], the inhibition in vivo at 100 mg/kg was determined as 62%.
In turn, `CCOc1cc(-c2nnc([C@H](C)O)o2)c(Cl)c2c1C(=O)[C@@]1(O2)C(OC)=CC(=O)C[C@H]1C` [Example 12, (2S,5′R)-7-Chloro-4-ethoxy-6-[5-[(1S)-1-hydroxyethyl]-1,3,4-oxadiazol-2-yl]-3′-methoxy-5′-methyl-spiro[benzofuran-2,4′-cyclohex-2-ene]-1′,3-dione] had an inhibition in vivo at 100 mg/kg of 61%.
Compound `COC1=CC(=O)C[C@@H](C)[C@]12Oc1c(Cl)c(-c3nnc([C@@H](C)O)o3)cc(OC)c1C2=O` [Example 10, (2S,5′R)-7-Chloro-6-[5-[(1R)-1-hydroxyethyl]-1,3,4-oxadiazol-2-yl]-3′,4-dimethoxy-5′-methyl-spiro[benzofuran-2,4′-cyclohex-2-ene]-1′,3-dione] came in with an inhibition in vivo at 100 mg/kg of 58%.
In the case of `COC1=CC(=O)C[C@@H](C)[C@]12Oc1c(Cl)c(-c3noc(C)n3)cc(OC)c1C2=O` [Example 7, (2S,5′R)-7-Chloro-3′,4-dimethoxy-5′-methyl-6-(5-methyl-1,2,4-oxadiazol-3-yl)spiro[benzofuran-2,4′-cyclohex-2-ene]-1′,3-dione] it was 65%; in that of `COC1=CC(=O)C[C@@H](C)[C@]12Oc1c(Cl)c(-c3nnc(C(C)(C)O)o3)cc(OC)c1C2=O` [Example 8, (2S,5′R)-7-Chloro-6-[5-(1-hydroxy-1-methyl-ethyl)-1,3,4-oxadiazol-2-yl]-3′,4-dimethoxy-5′-methyl-spiro[benzofuran-2,4′-cyclohex-2-ene]-1′,3-dione], 38%.

A word on the inhibition in vivo: it is the drop in the measured response relative to a control, in per cent. A low value points to a weak effect.
